System: 2,985 participants free of prevalent diabetes at baseline
Assay: Cardiovascular Health Study: plasma phospholipid fatty acids and incident diabetes mellitus (Cox proportional-hazards)
Format: in vivo, human
Conditions: per each higher SD of the plasma phospholipid fatty acid; multivariable-adjusted (covariates as in Table 4)
Experimental: Plasma phospholipid fatty acids, anthropometry, blood lipids, inflammatory markers, and glucose-insulin levels were measured at baseline using standardized methods. Independent determinants of trans-palmitoleate and relationships of trans-palmitoleate with metabolic risk factors were investigated using multivariable-adjusted linear regression.
Multivariable model adjusted for age (years), gender (male/female), race (white/nonwhite), education (<high school, high school, some college, college graduate), enrollment site (four sites), smoking (never, former, current), body mass index (kg/m^2), waist circumference (cm), coronary heart disease (yes/no), physical activity (kcal/wk), alcohol use (six categories), and consumption of carbohydrate (% energy), protein (% energy), red meat (servings/week), whole-fat dairy foods (6 categories), low-fat dairy foods (five categories), and total energy (kcal/d).
Participants were followed by means of annual examinations for 10 years with interim and subsequent 6-month telephone contacts. Ives et al., 5 Ann. Epidemiol. […] At each visit, detailed medication information was obtained using medication inventories. At baseline, study interviewers visited participants in their homes and asked to see all prescription medications they had taken in the previous 2 weeks. At follow-up exams, participants brought to clinic all prescription medications taken in the previous 2 weeks. Drug names, doses, and frequencies were coded according to prescription medication Medispan files.
Relationships between phospholipid fatty acids were evaluated using Spearman correlation. Trans-palmitoleate levels were evaluated in sex-specific quintiles as indicator variables and continuously per SD difference. Independent demographic and lifestyle determinants of trans-palmitoleate were evaluated using multivariable-adjusted linear regression with trans-palmitoleate as the dependent variable. Multivariable-adjusted relationships of trans-palmitoleate with metabolic risk factors (transformed for normality as appropriate) were evaluated using linear regression with trans-palmitoleate as the independent variable. Quintiles were evaluated as ordinal variables to assess trend, to assess effect modification using the Wald test for a multiplicative interaction term, and to assess differences in baseline characteristics by means of linear or logistic regression. […] To minimize potential confounding, covariates were selected based on biologic interest, being well-established risk factors for metabolic risk, or associations with exposures/outcomes in the present cohort. […] Analyses were performed using Stata10.1 (College Station, Tex.), two-tailed alpha=0.05.

| Structure (SMILES) | RR of diabetes per SD |
| --- | --- |
| CCCCCCCCCCCCCCC(=O)O [15:0, pentadecanoic acid, reference compound] | 1.01 |
| CCCCCC/C=C/CCCCCCCCCC(=O)O [Vaccenic acid, vaccenic acid, reference compound] | 0.89 |
| CCCCCCCCCCCCCCCCC(=O)O [17:0, reference compound] | 0.98 |
